In ChEMBL document CHEMBL4152186, “Recent advances in the search for novel 5-lipoxygenase inhibitors for the treatment of asthma” (Eur J Med Chem, 2018):

Columns and labels:
[1] = biological target: T1, Polyunsaturated fatty acid 5-lipoxygenase (Homo sapiens, UniProt P09917); assay: Inhibition of 5-LOX (unknown origin)
T1 sequence (P09917 whole entry): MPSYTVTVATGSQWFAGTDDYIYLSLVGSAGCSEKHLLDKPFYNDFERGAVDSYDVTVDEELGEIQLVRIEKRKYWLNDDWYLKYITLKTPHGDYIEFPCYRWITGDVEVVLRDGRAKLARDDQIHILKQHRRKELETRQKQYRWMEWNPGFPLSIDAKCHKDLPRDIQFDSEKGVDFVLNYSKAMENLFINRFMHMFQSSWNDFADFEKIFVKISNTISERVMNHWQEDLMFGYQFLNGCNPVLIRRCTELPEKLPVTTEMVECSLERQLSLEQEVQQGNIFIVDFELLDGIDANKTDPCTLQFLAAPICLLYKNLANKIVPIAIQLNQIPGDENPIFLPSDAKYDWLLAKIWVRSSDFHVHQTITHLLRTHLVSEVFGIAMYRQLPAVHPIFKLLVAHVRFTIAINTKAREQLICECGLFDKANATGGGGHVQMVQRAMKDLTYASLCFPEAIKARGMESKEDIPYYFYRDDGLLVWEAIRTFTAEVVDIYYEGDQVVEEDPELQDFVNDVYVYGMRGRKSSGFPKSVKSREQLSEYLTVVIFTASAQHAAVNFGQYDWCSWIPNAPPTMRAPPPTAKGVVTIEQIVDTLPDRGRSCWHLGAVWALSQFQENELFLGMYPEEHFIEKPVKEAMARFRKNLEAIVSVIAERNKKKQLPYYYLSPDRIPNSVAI

[2] = biological target: T2, Prostaglandin G/H synthase 2 (Homo sapiens, UniProt P35354); assay: Inhibition of COX2 (unknown origin)
T2 sequence (P35354 whole entry): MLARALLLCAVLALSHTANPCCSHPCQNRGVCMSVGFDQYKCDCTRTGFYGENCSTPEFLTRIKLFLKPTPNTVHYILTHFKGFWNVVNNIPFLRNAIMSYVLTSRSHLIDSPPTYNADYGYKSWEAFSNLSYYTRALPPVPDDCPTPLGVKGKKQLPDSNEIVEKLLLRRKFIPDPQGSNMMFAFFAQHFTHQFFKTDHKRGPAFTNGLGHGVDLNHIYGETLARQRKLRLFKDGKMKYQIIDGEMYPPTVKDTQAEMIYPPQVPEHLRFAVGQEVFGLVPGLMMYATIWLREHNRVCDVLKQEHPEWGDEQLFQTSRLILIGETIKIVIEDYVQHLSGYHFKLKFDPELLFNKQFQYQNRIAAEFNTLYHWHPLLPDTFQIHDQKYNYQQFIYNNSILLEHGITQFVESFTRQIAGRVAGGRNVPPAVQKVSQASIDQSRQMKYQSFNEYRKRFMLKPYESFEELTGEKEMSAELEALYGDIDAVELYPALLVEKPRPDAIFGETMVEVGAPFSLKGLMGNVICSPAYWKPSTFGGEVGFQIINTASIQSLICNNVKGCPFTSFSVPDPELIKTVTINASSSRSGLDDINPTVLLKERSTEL

SMILES: Cc1cc(Nc2ncc(-c3ccc(F)cc3)o2)cc(C)c1O
- IC50 [1]: 65 to 1250 nM

SMILES: O=C(O)c1noc(-c2ccc(OCc3ccc4ccccc4n3)cc2)c1-c1ccc(Cl)cc1
- IC50 [1]: 65 to 1250 nM

SMILES: CC[C@](O)(c1nnc(NCc2ccc3c(-c4ccc(F)cc4)cc(=O)oc3c2)o1)C(F)(F)F [SETILEUTON]
- IC50 [1]: 65 to 1250 nM

SMILES: CS(=O)(=O)c1ccc(-c2nc(SCCN(O)C(N)=O)nn2-c2ccc(Br)cc2)cc1
- IC50 [1]: 850 nM
- IC50 [2]: 150 nM
